Consider 12 molecules from ChEMBL document CHEMBL1201862, “PubChem BioAssay data set” (2004).

Test systems include UO-31; OVCAR-5; RXF 393; NCI-H522; SF-295; SNB-19; KM12; SW-620; SF-539; SR; SN12C; NCI-H23; IGROV-1; CCRF-CEM; NCI-H226; EKVX; CAKI-1; SK-MEL-5; HCC 2998.
Test in all cases: growth of human tumour cells (NCI), 48 h

Molecules are shown by their SMILES.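 96-well plates; 48 h exposure; 5 concentrations. Endpoints by linear interpolation between flanking doses. Not reached: highest tested concentration assigned. GI50 is the concentration that inhibits growth by half.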 Active and inactive are the calls of the source. Cut-off read from the data, not from the text of the source: active = GI50 up to about 1.1 µM and inactive = higher.

For the molecule `Oc1ccc(I)c2cccnc12`, the GI50 is 6.98 µM (inactive) in the test with UO-31; 52.5 µM (inactive) with OVCAR-5; 6.82 µM (inactive) in the test on RXF 393; 1.94 µM (inactive) in the test on NCI-H522; 3.48 µM (inactive) in the test on SF-295; 17.8 µM (inactive) in the test on SNB-19. Besides, the GI50 in the test on KM12 is 14.8 µM (inactive); in the test with SW-620 it was 4.43 µM (inactive); with SF-539 it was 12.5 µM (inactive); in the test with SR, 3.35 µM (inactive); in the test on SN12C it was 13.4 µM (inactive); with NCI-H23, 8.38 µM (inactive). Also, the GI50 was 8.18 µM (inactive) with IGROV-1, 2.42 µM (inactive) in the test on CCRF-CEM, 15.6 µM (inactive) in the test on NCI-H226 and 9.27 µM (inactive) with EKVX.

Regarding `O=C(O/C(=C(/N=N/c1ccccc1)c1ccccc1)c1ccccc1)c1ccccc1`, the GI50 with UO-31, in the test with OVCAR-5, with RXF 393, in the test on NCI-H522, in the test with SF-295 and with SNB-19 was > 100 µM (inactive) in each case. Moreover, the GI50 in the test with KM12, in the test on SW-620, in the test with CAKI-1, in the test with SF-539, in the test on SR and with SN12C was > 100 µM (inactive) in each case. The GI50 with NCI-H23, with IGROV-1, with NCI-H226, in the test with SK-MEL-5, in the test on HCC 2998 and with EKVX was > 100 µM (inactive) in each case.

Take `Cc1cc(N(CCC#N)CCC#N)ccc1/C=C1N=C(/C=C\c2ccccc2)N(c2ccc(C(=O)O)cc2)C\1=O`: the GI50 with UO-31, in the test on OVCAR-5, in the test on NCI-H522, with SF-295, with SNB-19 and with KM12 was > 100 µM (inactive) in each case. The GI50 in the test on SW-620, with CAKI-1, with SF-539, with SR, in the test with SN12C and in the test with NCI-H23 was > 100 µM (inactive) in each case. Moreover, the GI50 in the test on IGROV-1, in the test with CCRF-CEM, with NCI-H226 and with SK-MEL-5 was > 100 µM (inactive) throughout.

`COC1OC(CO)C(O)C1N` (stereo not drawn): the GI50 in the test with OVCAR-5, in the test with RXF 393, in the test with NCI-H522, in the test on SF-295, in the test with SNB-19 and with KM12 was > 100 µM (inactive) each time. In addition, the GI50 with SW-620, in the test on CAKI-1, in the test with SF-539, in the test on SR, in the test on SN12C and in the test on NCI-H23 was > 100 µM (inactive) in each case. Besides, the GI50 in the test with IGROV-1, in the test on CCRF-CEM, with NCI-H226, with SK-MEL-5 and in the test on EKVX was > 100 µM (inactive) throughout.

Regarding `CC(/C=C/c1ccccc1)=N\N=C(C)\C=C\c1ccccc1`, the GI50 in the test with OVCAR-5, in the test on NCI-H522, in the test with SF-295, in the test with KM12, in the test on SW-620 and in the test on SR was > 100 µM (inactive) each time. Besides, the GI50 with SN12C, in the test with NCI-H23, in the test on IGROV-1, with CCRF-CEM, in the test on NCI-H226 and with SK-MEL-5 was > 100 µM (inactive) each time. Besides, the GI50 in the test with HCC 2998 and with EKVX was > 100 µM (inactive) throughout.

For `O=C(N/C(=C\c1cc(Cl)ccc1Cl)c1nc2ccccc2[nH]1)c1ccccc1`, the GI50 in the test with UO-31 is 20.2 µM (inactive); with OVCAR-5 it was 52.2 µM (inactive); in the test with RXF 393, 21.3 µM (inactive); in the test with NCI-H522 it was 29.1 µM (inactive); with SF-295, 24.5 µM (inactive); in the test on SNB-19, 46.9 µM (inactive). Moreover, the GI50 in the test with KM12 is 27.4 µM (inactive); in the test with SW-620 it was 22 µM (inactive); in the test with CAKI-1, 30.8 µM (inactive); in the test on SF-539, 39.3 µM (inactive); in the test on SR, 24.4 µM (inactive); with SN12C, 32.1 µM (inactive). The GI50 in the test on NCI-H23 is 23.8 µM (inactive); in the test with IGROV-1 it was > 10 µM (inactive); in the test with CCRF-CEM it was 25.9 µM (inactive); in the test with SK-MEL-5, 21.7 µM (inactive); in the test with HCC 2998, 17.9 µM (inactive); in the test on EKVX, 28.5 µM (inactive).

As for `CCOC(=O)c1nc2ccc(Cl)cc2c2c1Cc1ccccc1-2`, the GI50 in the test on UO-31 is > 100 µM (inactive); in the test with OVCAR-5, > 100 µM (inactive); in the test on RXF 393 it was 19.7 µM (inactive); in the test on NCI-H522, 90.8 µM (inactive); with SF-295 it was > 100 µM (inactive); with SNB-19 it was > 100 µM (inactive). Also, the GI50 with KM12, in the test with SW-620, in the test with CAKI-1, in the test on SF-539, in the test on SR and in the test with SN12C was > 100 µM (inactive) each time. Besides, the GI50 with NCI-H23, in the test with IGROV-1, with NCI-H226, in the test on SK-MEL-5, in the test with HCC 2998 and in the test on EKVX was > 100 µM (inactive) in each case.

With `CCN(CC)c1ccc2c(c1)Oc1ccc(N(CC)CC)cc1C21Oc2ccccc2-c2c1c1ccccc1n2CC` (stereo not drawn), the GI50 was 1.43 µM (inactive) with UO-31; 1.81 µM (inactive) in the test on RXF 393; 1.3 µM (inactive) in the test on NCI-H522; 2.7 µM (inactive) in the test with SF-295; 6.87 µM (inactive) in the test on SNB-19; 3.58 µM (inactive) in the test on SW-620. Also, the GI50 with CAKI-1 was 5.15 µM (inactive); with SR, 4.48 µM (inactive); in the test with SN12C, 3.68 µM (inactive); in the test on NCI-H23, 2.07 µM (inactive); in the test with CCRF-CEM, 1.44 µM (inactive); in the test with NCI-H226 it was 7.74 µM (inactive). The GI50 with SK-MEL-5 was 1.56 µM (inactive); in the test on HCC 2998 it was 3.07 µM (inactive); in the test with EKVX it was 6.47 µM (inactive).

For `CN1CCC(O)C(CNC23CC4CC(CC(C4)C2)C3)C1` (stereo not drawn), the GI50 with UO-31 was > 100 µM (inactive); in the test with OVCAR-5 it was > 100 µM (inactive); in the test with RXF 393, 62.2 µM (inactive); with NCI-H522, > 100 µM (inactive); in the test on SF-295, > 100 µM (inactive); in the test with SNB-19 it was > 100 µM (inactive). Moreover, the GI50 in the test on KM12, with SW-620, in the test on CAKI-1, with SF-539, in the test on SR and in the test with SN12C was > 100 µM (inactive) each time. Further, the GI50 in the test on NCI-H23, with CCRF-CEM, with NCI-H226, in the test on SK-MEL-5 and in the test on EKVX was > 100 µM (inactive) throughout.

As to `COc1ccc2c(c1)c(=Cc1ccc(N(C)C)cc1)c1cc(-c3ccccc3)[n+](C)n12`, the GI50 was 0.596 µM (active) with UO-31; 0.875 µM (active) in the test with OVCAR-5; 0.41 µM (active) in the test on RXF 393; 0.0728 µM (active) in the test on NCI-H522; 0.264 µM (active) with SF-295; 0.282 µM (active) in the test on SNB-19. Moreover, the GI50 was 0.448 µM (active) in the test on KM12; 0.377 µM (active) with SW-620; 1.49 µM (inactive) with CAKI-1; 0.337 µM (active) in the test with SR; 0.345 µM (active) in the test with SN12C; 0.0592 µM (active) with NCI-H23. The GI50 is 0.144 µM (active) with IGROV-1; 0.269 µM (active) with CCRF-CEM; 0.15 µM (active) with NCI-H226; 0.304 µM (active) in the test with SK-MEL-5; 0.324 µM (active) with HCC 2998; 0.255 µM (active) in the test on EKVX.

Regarding `C=CC/N=C1/N=C(CC(=O)OCC)CS1`, the GI50 in the test on UO-31, in the test with OVCAR-5, with RXF 393, in the test on NCI-H522, in the test with SF-295 and in the test on SNB-19 was > 100 µM (inactive) in each case. Moreover, the GI50 with KM12, with SW-620, in the test with CAKI-1, in the test with SF-539, with SN12C and in the test with NCI-H23 was > 100 µM (inactive) each time. For the same molecule, the GI50 with IGROV-1, in the test on CCRF-CEM, with NCI-H226, with SK-MEL-5, in the test on HCC 2998 and with EKVX was > 100 µM (inactive) throughout.

Consider `CC(=O)N(C)c1ccc2ncccc2c1[N+](=O)[O-]`, for which the GI50 in the test with UO-31, with OVCAR-5, in the test with RXF 393, in the test on SF-295, in the test with SNB-19 and with KM12 was > 100 µM (inactive) each time. The GI50 in the test on SW-620, in the test on CAKI-1, with SF-539, with SR, in the test on SN12C and in the test on NCI-H23 was > 100 µM (inactive) throughout. For the same molecule, the GI50 with IGROV-1, in the test on CCRF-CEM, in the test on NCI-H226, in the test on SK-MEL-5, in the test with HCC 2998 and with EKVX was > 100 µM (inactive) throughout.
